The values below come from patent US8093239B2, “Imidazopyridine kinase inhibitors” (GlaxoSmithKline LLC, priority 2007, dated 2012).

Data set [1] deals with LISN cell (mouse 3T3 fibroblasts transduced with human IGF-1R) tumors. Put plainly: In vivo efficacy, mice bearing LISN cell tumors. As to conditions: for tumor growth inhibition at day 21: LISN tumors (~362 mm^3). On the procedure:
E. In Vivo Efficacy—Mouse Models
The efficacy of the compounds of Examples 57 and 58 were assessed together in an in vivo efficacy experiment performed on mice bearing LISN cell (mouse 3T3 fibroblasts transduced with human IGF-1R) tumors. Fifty six female nude mice bearing subcutaneous LISN cell tumors were measured for tumor size and body weight and block randomized into seven groups of eight mice with an equal average tumor volume of approximately 200 mm3. Mice were dosed with either vehicle (20% SBE pH3.5), Example 57 or Example 58. The dosing schedules for each compound were based on previous experiments with the compounds and doses chosen to give the highest tumor growth inhibition and a dose response. Example 58 was dosed at 30, 100 and 300 mg/kg QD for 21 days while Example 57 was dosed at 30 mg/kg QD for 21 days, 15 mg/kg BID for 21 days and 30 mg/kg QD×3 days/week for 3 weeks.
The tumors on mice being treated with vehicle grew with the expected exponential growth throughout the 21 day study. […] The lower dose of 30 mg/kg of Example 58 achieved 28% tumor growth inhibition.
The efficacy of the compounds of Examples 237 and 219 were assessed together in an in vivo efficacy experiment performed on mice bearing LISN cell (mouse 3T3 fibroblasts transduced with human IGF-1R) tumors. Sixty four female nude mice bearing subcutaneous LISN cell tumors were measured for tumor size and body weight and block randomized into eight groups of eight mice with an equal average tumor volume of approximately 362 mm^3. Mice were dosed with either vehicle (20% SBE pH3.5), Example 237 or Example 219. The dosing schedules for each compound were based on previous experiments with the compounds and doses chosen to give the highest tumor growth inhibition and a dose response. Example 237 was administered at 30 and 60 mg/kg QD for 21 days and 30 mg/kg BID for 21 days while Example 219 was administered at 50 and 100 mg/kg QD for 21 days, 25 and 50 mg/kg BID for 21 days.
The tumors on mice being treated with vehicle grew with the expected exponential growth throughout the 21 day study. […] The lower dose of 30 mg/kg QD of Example 237 achieved 15% tumor growth inhibition at day 21 (note: 2 animals were euthanized prior to the last measurement). […] This recovered to 3% by the end of dosing and fully recovered after dosing was concluded. […] This recovered fully within 4 days after the completion of dosing.

Data set [2] relates to BT474 cell tumors (breast carcinoma cell line). Put plainly: In vivo efficacy, BT474 tumor bearing mice. On the set-up: species or system mouse. Particulars: BT474 study, all groups (60, 30, 15 mg/kg QD, 15 mg/kg BID). On the procedure:
(§1) In addition to the LISN xenograft efficacy studies, Example 57 has also been assessed in vivo in two other mouse models of cancer, including: Colo-205 tumor bearing mice (colon carcinoma cell line) and BT474 tumor bearing mice (breast carcinoma cell line). Forty female nude mice bearing Colo-205 tumors (average tumor size of 200 mm3) were randomized into five groups of eight mice and dosed with either vehicle (20% SBE pH3.5) or Example 57 at 100, 30, 10 mg/kg QD or 30 mg/kg BID for 21 days. The groups of mice dosed with the higher doses of Example 57 (100 mg/kg QD and 30 mg/kg BID) lost greater than 20% body weight within 10 days of dosing so were taken off the study and allowed to recover. […] The higher doses of 100 mg/kg QD×10 and 30 mg/kg BID×10 achieved 72 and 49% tumor growth inhibition respectively.
Due to the body weight loss seen with the higher doses in the Colo-205 xenograft efficacy study, the dosing regime was altered for the follow up BT474 study. Forty female nude mice bearing subcutaneous BT474 cell tumors (average tumor size of 200 mm3) were randomized into five groups each containing eight mice and dosed with either vehicle (20% SBE pH3.5) or Example 57 at 60, 30 or 15 mg/kg QD or 15 mg/kg BID for 21 days. Note the maximal QD dose was reduced from 100 mg/kg to 60 mg/kg and the BID dose reduced from 30 mg/kg to 15 mg/kg. […]

Data set [3] relates to Colo-205 tumors (colon carcinoma cell line). Put plainly: In vivo efficacy, Colo-205 tumor bearing mice. On the set-up: species or system mouse. As to conditions: Colo-205 study. On the procedure:
as §1

[4] abbreviates: LISN study (~362 mm^3), 100 mg/kg and 50 mg/kg QD.

`COc1cc(N2CCC(N3CCN(CCF)CC3)CC2)ccc1Nc1nccc(-c2c(-c3cccc(C(=O)Nc4c(F)cccc4F)c3)nc3ccccn23)n1` [Example 57, N-(2,6-difluorophenyl)-3-[3-(2-{[4-{4-[4-(2-fluoroethyl)-1-piperazinyl]-1-piperidinyl}-2-(methyloxy)phenyl]amino}-4-pyrimidinyl)imidazo[1,2-a]pyridin-2-yl]benzamide]: the body weight loss entry in data set [1] (LISN study, 30 mg/kg QD and 15 mg/kg BID treated groups, 21 days) is listed as “no body weight loss”; in data set [1] (LISN study, 30 mg/kg QD×3 days/week for 3 weeks, over the three consecutive days of dosing, recovered in the four days between doses) it was “significant body weight loss”; in data set [2], “no body weight loss”; in data set [3] (30 and 10 mg/kg QD×21), “no body weight loss”. Also, the tolerability entry in data set [1] (LISN study, 30 mg/kg QD and 15 mg/kg BID, 21 days) is recorded as “well tolerated”. The body weight lost entry in data set [3] (100 mg/kg QD and 30 mg/kg BID, within 10 days of dosing) was “greater than 20%”.
As for `COc1cc(N2CCC(N3CCN(S(C)(=O)=O)CC3)CC2)ccc1Nc1nccc(-c2c(-c3cccc(C(=O)Nc4c(F)cccc4F)c3)nc3ccccn23)n1` [Example 58, N-(2,6-difluorophenyl)-3-(3-{2-[(2-(methyloxy)-4-{4-[4-(methylsulfonyl)-1-piperazinyl]-1-piperidinyl}phenyl)amino]-4-pyrimidinyl}imidazo[1,2-a]pyridin-2-yl)benzamide], in data set [1] (LISN study, 30, 100 and 300 mg/kg QD for 21 days, throughout the study), the body weight loss entry is given as “no effect of Example 58 on body weight loss”.
In the case of `CCOc1cc(N2CCC(CCS(C)(=O)=O)CC2)c(C)cc1Nc1nccc(-c2c(-c3ccc(OC)c(C(=O)Nc4c(F)cccc4F)c3)nc3ccccn23)n1` [Example 219, N-(2,6-difluorophenyl)-5-(3-{2-[(2-(ethyloxy)-5-methyl-4-{4-[2-(methylsulfonyl)ethyl]-1-piperidinyl}phenyl)amino]-4-pyrimidinyl}imidazo[1,2-a]pyridin-2-yl)-2-(methyloxy)benzamide], in data set [1] (LISN study (~362 mm^3), 25 mg/kg BID and 50 mg/kg BID), the “time to full recovery of body weight after the completion of dosing” value is not above 4 days. In addition, the body weight loss in data set [1] (LISN study (~362 mm^3), 25 mg/kg BID for 21 days) is listed as 4%; in data set [1] (LISN study (~362 mm^3), 50 mg/kg BID for 21 days) it was 6%; in data set [1] (setting [4]) it was “no body weight loss”. For the same molecule, the tolerability result in data set [1] (setting [4]) was “well tolerated”.
On to `CCc1cc(Nc2nccc(-c3c(-c4ccc(OC)c(C(=O)Nc5c(F)cccc5F)c4)nc4ccccn34)n2)c(OC)cc1N1CCC(N2CCN(S(C)(=O)=O)CC2)CC1` [Example 237, N-(2,6-difluorophenyl)-5-(3-{2-[(5-ethyl-2-(methyloxy)-4-{4-[4-(methylsulfonyl)-1-piperazinyl]-1-piperidinyl}phenyl)amino]-4-pyrimidinyl}imidazo[1,2-a]pyridin-2-yl)-2-(methyloxy)benzamide], for which the “initial body weight loss” value in data set [1] (LISN study (~362 mm^3), 30 mg/kg BID) came to 6%. The “body weight loss by the end of dosing” value in data set [1] (LISN study (~362 mm^3), 30 mg/kg BID, fully recovered after dosing was concluded) stood at 3%. In addition, the body weight loss result in data set [1] (LISN study (~362 mm^3), other groups (30 and 60 mg/kg QD)) is recorded as “no effect on body weight loss”. Besides, the “tumor growth inhibition at day 21” value in data set [1] (30 mg/kg BID for 21 days) is listed as 84%; in data set [1] (30 mg/kg QD for 21 days, 2 animals euthanized prior to the last measurement), 15%; in data set [1] (60 mg/kg QD for 21 days), 41%.
